Data taken from ChEMBL document CHEMBL4622851, “Cytotoxicity of 4-substituted quinoline derivatives: Anticancer and antileishmanial potential” (Bioorg Med Chem, 2020).
Activity calls are given as the source filed them. No cut-off for these calls is given here.

Legend:
Procathepsin L = Procathepsin L (Homo sapiens, UniProt P07711); assay: Inhibition of cathepsin L (unknown origin) using Z-FR-AMC as substrate by spectrofluorometric analysis; details: read-out: IC50
Jurkat [1] = assay: Cytotoxicity against human Jurkat cells assessed as reduction in cell viability at 50 and 100 uM after 24 hrs by MTT assay; assay type: functional, cell-based
Rattus norvegicus [2] = species on record: Rattus norvegicus; assay: Induction of mitochondrial permeabilization in rat liver mitochondria assessed as calcium efflux by calcium green based spectrofluorometer analysis; assay type: functional
Rattus norvegicus [3] = species on record: Rattus norvegicus; assay: Induction of mitochondrial permeabilization in rat liver mitochondria assessed as mitochondrial transmembrane potential dissipation in presence of ADP by rhodamine-123 dye based spectrofluorometer analysis; assay type: functional
SK-MEL-147 [4] = assay: Induction of apoptosis in human SK-MEL-147 cells assessed as mitochondrial membrane potential dissipation after 24 hrs by TMRM staining based fluorescence microscopic method; assay type: functional, cell-based
SK-MEL-147 [5] = assay: Cytotoxicity against human SK-MEL-147 cells assessed as reduction in cell viability after 24 hrs by MTT assay; assay type: functional, cell-based; details: SK-MEL-147, 24 h
SK-MEL-147 [6] = assay: Cytotoxicity against human SK-MEL-147 cells assessed as reduction in cell viability in presence of BCL2 inhibitor venetoclax; assay type: functional, cell-based
Rattus norvegicus [7] = species on record: Rattus norvegicus; assay: Induction of mitochondrial permeabilization in rat liver mitochondria assessed as mitochondrial transmembrane potential dissipation by rhodamine-123 dye based spectrofluorometer analysis; assay type: functional
SK-MEL-147 [8] = assay: Cytotoxicity against human SK-MEL-147 cells assessed as reduction in cell viability at EC50 concentration preincubated for 1 hr in presence of GSH measured after 24 hrs by MTT assay; assay type: functional, cell-based
SK-MEL-147 [9] = assay: Induction of apoptosis in human SK-MEL-147 cells assessed as increase in reactive oxygen species generation by CM-H2DCFDA staining based flow cytometric analysis; assay type: functional, cell-based
SK-MEL-147 [10] = assay: Cytotoxicity against human SK-MEL-147 cells assessed as reduction in cell viability at EC50 concentration preincubated for 1 hr in presence of N-acetyl cysteine measured after 24 hrs by MTT assay; assay type: functional, cell-based
SK-MEL-147 [11] = assay: Induction of apoptosis in human SK-MEL-147 cells assessed as late apoptotic cells at 20 uM after 24 hrs by Annexin V-FITC/propidium iodide staining based flow cytometry; assay type: functional, cell-based
SK-MEL-147 [12] = assay: Induction of apoptosis in human SK-MEL-147 cells assessed as increase in BAX expression at 20 uM after 24 hrs by western blotting analysis; assay type: functional, cell-based
SK-MEL-147 [13] = assay: Induction of apoptosis in human SK-MEL-147 cells assessed as early apoptotic cells at 20 uM after 24 hrs by Annexin V-FITC/propidium iodide staining based flow cytometry; assay type: functional, cell-based
Rattus norvegicus [14] = species on record: Rattus norvegicus; assay: Induction of mitochondrial permeabilization in rat liver mitochondria assessed as calcium efflux in presence of ADP by calcium green based spectrofluorometer analysis; assay type: functional
Rattus norvegicus [15] = species on record: Rattus norvegicus; assay: Induction of mitochondrial permeabilization in rat liver mitochondria assessed as mitochondrial transmembrane potential dissipation in presence of CsA by rhodamine-123 dye based spectrofluorometer analysis; assay type: functional
SK-MEL-147 [16] = assay: Induction of apoptosis in human SK-MEL-147 cells assessed as effect on BCL-2 protein expression at 20 uM after 24 hrs by western blotting analysis; assay type: functional, cell-based
Rattus norvegicus [17] = species on record: Rattus norvegicus; assay: Induction of mitochondrial permeabilization in rat liver mitochondria assessed as mitochondrial transmembrane potential dissipation in presence of DTT by rhodamine-123 dye based spectrofluorometer analysis; assay type: functional
SK-MEL [18] = assay: Cytotoxicity against human SK-MEL-147 cells assessed as reduction in cell viability at EC50 concentration preincubated for 1 hr in presence of BAPTA measured after 24 hrs by MTT assay; assay type: functional, cell-based
SK-MEL [19] = assay: Cytotoxicity against human SK-MEL-147 cells assessed as reduction in cell viability at EC50 concentration preincubated for 1 hr in presence of EGTA measured after 24 hrs by MTT assay; assay type: functional, cell-based
SK-MEL-147 [20] = assay: Cytotoxicity against human SK-MEL-147 cells assessed as reduction in cell viability at EC50 concentration preincubated for 1 hr in presence of E-64 measured after 24 hrs by MTT assay; assay type: functional, cell-based
SK-MEL-147 [21] = assay: Cytotoxicity against human SK-MEL-147 cells assessed as reduction in cell viability at EC50 concentration preincubated for 1 hr in presence of DTT measured after 24 hrs by MTT assay; assay type: functional, cell-based
Cathepsin B = Cathepsin B (Homo sapiens, UniProt P07858); assay: Inhibition of cathepsin B (unknown origin) using Z-FR-AMC as substrate by spectrofluorometric analysis; details: read-out: IC50
SK-MEL-147 [22] = assay: Cytotoxicity against human SK-MEL-147 cells assessed as reduction in cell viability at EC50 concentration preincubated for 1 hr in presence of Boc-D-FMK measured after 24 hrs by MTT assay; assay type: functional, cell-based
SK-MEL-147 [23] = assay: Induction of apoptosis in human SK-MEL-147 cells assessed as necrotic cells at 20 uM after 24 hrs by Annexin V-FITC/propidium iodide staining based flow cytometry; assay type: functional, cell-based
Jurkat [24] = assay: Cytotoxicity against human Jurkat cells assessed as reduction in cell viability after 24 hrs by MTT assay; assay type: functional, cell-based
SK-MEL-147 [25] = assay: Cytotoxicity against human SK-MEL-147 cells assessed as reduction in cell viability at 50 and 100 uM after 24 hrs by MTT assay; assay type: functional, cell-based
Rattus norvegicus [26] = species on record: Rattus norvegicus; assay: Induction of mitochondrial permeabilization in rat liver mitochondria assessed as calcium efflux in presence of CsA by calcium green based spectrofluorometer analysis; assay type: functional
Rattus norvegicus [27] = species on record: Rattus norvegicus; assay: Induction of mitochondrial permeabilization in rat liver mitochondria assessed as calcium efflux in presence of DTT by calcium green based spectrofluorometer analysis; assay type: functional
SK-MEL-147 [28] = assay: Induction of apoptosis in human SK-MEL-147 cells assessed mitochondrial permeabilization after 24 hrs by mitotracker green staining based microscopic analysis; assay type: functional, cell-based
[29] = Inhibition of Leishmania mexicana rCPB3.0 H84Y mutant using Z-FR-AMC as substrate by spectrofluorometric analysis
Cysteine proteinase B = Cysteine proteinase B (Leishmania mexicana, UniProt P36400); assay: Inhibition of Leishmania mexicana rCPB2.8 using Z-FR-AMC as substrate by spectrofluorometric analysis
Chain of Cysteine proteinase B (P36400 whole entry): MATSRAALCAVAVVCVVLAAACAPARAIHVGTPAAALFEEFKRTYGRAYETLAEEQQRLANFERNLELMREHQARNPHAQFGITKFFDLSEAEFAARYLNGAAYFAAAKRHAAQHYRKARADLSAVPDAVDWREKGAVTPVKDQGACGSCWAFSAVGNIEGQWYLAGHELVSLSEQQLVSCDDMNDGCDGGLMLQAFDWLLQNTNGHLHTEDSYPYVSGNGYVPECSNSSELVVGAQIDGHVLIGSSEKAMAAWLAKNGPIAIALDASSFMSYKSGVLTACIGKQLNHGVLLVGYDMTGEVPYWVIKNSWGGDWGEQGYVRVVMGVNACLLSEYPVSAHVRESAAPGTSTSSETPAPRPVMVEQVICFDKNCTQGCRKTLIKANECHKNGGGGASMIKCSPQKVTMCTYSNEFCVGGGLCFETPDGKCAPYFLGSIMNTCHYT

[30] = Inhibition of Leishmania mexicana rCPB3.0 using Z-FR-AMC as substrate by spectrofluorometric analysis

Chain of Procathepsin L (P07711 whole entry): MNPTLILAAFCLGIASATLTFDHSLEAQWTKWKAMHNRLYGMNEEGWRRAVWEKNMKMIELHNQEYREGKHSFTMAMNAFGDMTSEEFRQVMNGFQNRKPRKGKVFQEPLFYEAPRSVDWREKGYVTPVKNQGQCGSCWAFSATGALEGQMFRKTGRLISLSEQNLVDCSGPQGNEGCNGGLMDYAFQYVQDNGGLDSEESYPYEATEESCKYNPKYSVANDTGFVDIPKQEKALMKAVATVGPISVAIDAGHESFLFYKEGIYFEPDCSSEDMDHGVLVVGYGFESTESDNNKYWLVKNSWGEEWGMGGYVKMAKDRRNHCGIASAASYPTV

CCCCC#Cc1cc(C(=O)OCC)nc2ccc(OC)cc12
IC50 (Procathepsin L): 3.69 µM
Activity (Jurkat [1]): Active
Activity (Rattus norvegicus [2]): Active
Activity (Rattus norvegicus [3]): Active
Activity (SK-MEL-147 [4]): Active
EC50 (SK-MEL-147 [5]): 7.2 µM
Activity (SK-MEL-147 [6]): Active
Activity (Rattus norvegicus [7]): Active
Activity (SK-MEL-147 [8]): Active
Activity (SK-MEL-147 [9]): Active
Activity (SK-MEL-147 [10]): Active
Activity (SK-MEL-147 [11]): Active
Activity (SK-MEL-147 [12]): Active
Activity (SK-MEL-147 [13]): Active
Activity (Rattus norvegicus [14]): inactive
Activity (Rattus norvegicus [15]): Active
Activity (SK-MEL-147 [16]): inactive
Activity (Rattus norvegicus [17]): Active
Activity (SK-MEL [18]): Active
Activity (SK-MEL [19]): Active
Activity (SK-MEL-147 [20]): inactive
Activity (SK-MEL-147 [21]): Active
IC50 (Cathepsin B): 6.86 µM
Activity (SK-MEL-147 [22]): inactive
Activity (SK-MEL-147 [23]): Active
EC50 (Jurkat [24]): 15.9 µM
Activity (SK-MEL-147 [25]): Active
Activity (Rattus norvegicus [26]): Active
Activity (Rattus norvegicus [27]): Active
Activity (SK-MEL-147 [28]): Active

CCOC(=O)c1cc([Se]c2ccc3cc(OC)ccc3c2)c2cc(OC)ccc2n1
Activity (Jurkat [1]): Active
EC50 (SK-MEL-147 [5]): 30.8 µM
EC50 (Jurkat [24]): 31.3 µM
Activity (SK-MEL-147 [25]): Active
IC50 [29]: 8.44 µM

CCOC(=O)c1cc(C#CCCO)c2cc(OC)ccc2n1
Activity (Jurkat [1]): Active
EC50 (SK-MEL-147 [5]): > 150 µM
EC50 (Jurkat [24]): 123 µM
Activity (SK-MEL-147 [25]): Active

CCOC(=O)c1cc([Se]c2ccccc2)c2ccccc2n1
Activity (Jurkat [1]): Active
EC50 (SK-MEL-147 [5]): 86.3 µM
IC50 (Cysteine proteinase B): 54 µM
IC50 [30]: 57.5 µM
EC50 (Jurkat [24]): 98.2 µM
Activity (SK-MEL-147 [25]): Active
IC50 [29]: 25.3 µM

CCOC(=O)c1cc([Se]Cc2ccccc2)c2cc(OC)ccc2n1
Activity (Jurkat [1]): Active
EC50 (SK-MEL-147 [5]): 40.7 µM
EC50 (Jurkat [24]): 20.8 µM
Activity (SK-MEL-147 [25]): Active

CCOC(=O)c1cc([Se]c2ccccc2)c2cc(Cl)ccc2n1
Activity (Jurkat [1]): Active
EC50 (SK-MEL-147 [5]): 47.1 µM
EC50 (Jurkat [24]): 53 µM
Activity (SK-MEL-147 [25]): Active

CCOC(=O)c1cc([Se]c2ccccc2C)c2cc(OC)ccc2n1
Activity (Jurkat [1]): Active
EC50 (SK-MEL-147 [5]): 38.9 µM
EC50 (Jurkat [24]): 14.9 µM
Activity (SK-MEL-147 [25]): Active

COc1ccc2nc(-c3c(C)cccc3C)cc([Se]c3ccccc3)c2c1
Activity (Jurkat [1]): Active
EC50 (SK-MEL-147 [5]): 37.3 µM
IC50 (Cysteine proteinase B): 12.9 µM
IC50 [30]: 7.44 µM
EC50 (Jurkat [24]): 26.9 µM
Activity (SK-MEL-147 [25]): Active
IC50 [29]: 20.4 µM

CCOC(=O)c1cc([Se]Cc2ccccc2)c2cc(Cl)ccc2n1
Activity (Jurkat [1]): Active
EC50 (SK-MEL-147 [5]): 84.5 µM
EC50 (Jurkat [24]): 88.5 µM
Activity (SK-MEL-147 [25]): Active

CCOC(=O)c1cc([Se]c2ccc3ccccc3c2)c2cc(OC)ccc2n1
Activity (Jurkat [1]): Active
EC50 (SK-MEL-147 [5]): 32.2 µM
EC50 (Jurkat [24]): 50.7 µM
Activity (SK-MEL-147 [25]): Active

CCOC(=O)c1cc(C#Cc2ccc(N)cc2)c2cc(OC)ccc2n1
Activity (Jurkat [1]): Active
EC50 (SK-MEL-147 [5]): 8.8 µM
EC50 (Jurkat [24]): 61 µM
Activity (SK-MEL-147 [25]): Active

CCOC(=O)c1cc([Se]c2ccc(OC)cc2)c2cc(OC)ccc2n1
Activity (Jurkat [1]): Active
EC50 (SK-MEL-147 [5]): 54.3 to 150 µM
EC50 (Jurkat [24]): 82.5 to 97.3 µM
Activity (SK-MEL-147 [25]): Active

CCOC(=O)c1cc([Se]Cc2ccccc2)c2cc(Br)ccc2n1
Activity (Jurkat [1]): Active
EC50 (SK-MEL-147 [5]): 31.2 µM
EC50 (Jurkat [24]): 53.6 µM
Activity (SK-MEL-147 [25]): Active

CCOC(=O)c1cc([Te]c2ccccc2)c2cc(OC)ccc2n1
Activity (Jurkat [1]): Active
EC50 (SK-MEL-147 [5]): 128 µM
EC50 (Jurkat [24]): 77.4 µM
Activity (SK-MEL-147 [25]): Active

CCOC(=O)c1cc([Se]c2ccc(F)cc2)c2cc(OC)ccc2n1
Activity (Jurkat [1]): Active
EC50 (SK-MEL-147 [5]): > 150 µM
EC50 (Jurkat [24]): 134 µM
Activity (SK-MEL-147 [25]): Active

CCOC(=O)c1cc(C#Cc2ccccc2[N+](=O)[O-])c2cc(OC)ccc2n1
Activity (Jurkat [1]): Active
EC50 (SK-MEL-147 [5]): > 150 µM
EC50 (Jurkat [24]): 54.7 µM
Activity (SK-MEL-147 [25]): Active

CCOC(=O)c1cc([Se]c2ccccc2)c2cc(Br)ccc2n1
Activity (Jurkat [1]): Active
EC50 (SK-MEL-147 [5]): 12.4 µM
EC50 (Jurkat [24]): 20.8 µM
Activity (SK-MEL-147 [25]): Active

CCOC(=O)c1cc([Se]c2ccccc2)c2cc(OC)ccc2n1
Activity (Jurkat [1]): Active
EC50 (SK-MEL-147 [5]): 33 µM
EC50 (Jurkat [24]): 102 µM
Activity (SK-MEL-147 [25]): Active

COc1ccc2nc(-c3cccs3)cc([Se]c3ccccc3)c2c1
Activity (Jurkat [1]): Active
EC50 (SK-MEL-147 [5]): > 150 µM
EC50 (Jurkat [24]): 99.8 µM
Activity (SK-MEL-147 [25]): Active

CCOC(=O)c1cc([Se]c2ccc3cc(OC)ccc3c2)c2cc(Cl)ccc2n1
Activity (Jurkat [1]): Active
EC50 (SK-MEL-147 [5]): 16.2 µM
IC50 [30]: 6.35 µM
EC50 (Jurkat [24]): 29.2 µM
Activity (SK-MEL-147 [25]): Active
IC50 [29]: 7.25 µM

COc1ccc2nc(-c3c(Cl)cccc3Cl)cc([Se]c3ccccc3)c2c1
Activity (Jurkat [1]): Active
EC50 (SK-MEL-147 [5]): > 150 µM
EC50 (Jurkat [24]): 17 µM
Activity (SK-MEL-147 [25]): Active
